Measured values from article PMC12555108, “In‐vitro Assessment of BCRP‐Mediated Efflux of Antiseizure Medications in Human Blood‐Brain Barrier Cell Model” (Journal of Biochemical and Molecular Toxicology, 2025).
One block for each molecule: values may come before it.

Experiments:
BCRP [1] = target: T1, BCRP (Homo sapiens, UniProt Q9UNQ0); assay: competitive substrate efflux assay (BODIPY-prazosin accumulation) in hCMEC/D3 cells; format: cell-based
T1 sequence (Q9UNQ0 1-655): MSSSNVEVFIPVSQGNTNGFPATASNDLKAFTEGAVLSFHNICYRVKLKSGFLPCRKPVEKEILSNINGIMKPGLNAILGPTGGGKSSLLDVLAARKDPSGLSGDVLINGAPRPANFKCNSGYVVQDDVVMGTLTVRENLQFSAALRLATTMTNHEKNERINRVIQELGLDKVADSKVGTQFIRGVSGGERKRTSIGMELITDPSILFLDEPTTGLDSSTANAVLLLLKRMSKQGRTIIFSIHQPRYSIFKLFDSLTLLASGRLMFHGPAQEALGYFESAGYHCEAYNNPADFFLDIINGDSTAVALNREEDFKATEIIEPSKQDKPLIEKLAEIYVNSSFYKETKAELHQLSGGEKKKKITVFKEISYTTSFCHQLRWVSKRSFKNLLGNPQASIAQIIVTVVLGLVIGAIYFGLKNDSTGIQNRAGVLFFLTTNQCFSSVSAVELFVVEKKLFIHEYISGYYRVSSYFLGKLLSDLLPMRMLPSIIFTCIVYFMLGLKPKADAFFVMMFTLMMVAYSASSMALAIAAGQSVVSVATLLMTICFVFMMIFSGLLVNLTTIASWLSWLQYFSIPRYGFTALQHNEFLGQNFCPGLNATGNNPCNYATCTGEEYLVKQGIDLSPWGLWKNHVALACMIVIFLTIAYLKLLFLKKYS
Experimental: The potential of ASMs to compete with a known fluorescent substrate of BCRP, BPZ in hCMEC/D3 cells was examined using a competitive substrate efflux assay that has previously been used in various studies. The interaction of CBZ, DCLB, OXC, TPM, and LEVI with BCRP was evaluated. Initially, hCMEC/D3 were seeded in 12‐well plates (cat. no. 150628, Nunc, Thermo Fisher Scientific, MA, USA) at 70‐80% confluency for 24 h. In this study, Ko143 was used for BCRP inhibition. The cultured cells were incubated at 37°C for half an hour in media containing BPZ with either the test ASMs or Ko143. Cells were washed with chilled 1X PBS three times and again incubated at 37°C for 1 h 30 min in BPZ‐free media with or without Ko143. Cells were washed three times with ice‐cold 1X PBS to terminate the assay. Cell lysis was performed by adding 1% triton X‐100, followed by incubating the cells for 15 min at 37°C. 20 µl of cell lysate was placed in 384‐well black assay plates for fluorescence detection (excitation at 488 nm; emission at 530 nm) to Infinite 200 PRO NanoQuant (Tecan, Zurich, Switzerland). The rest of the cell lysate was used for determining protein levels using the BCA protein estimation method to normalize the observed fluorescence intensity with total protein yield. The data were shown as a fold increment in intracellular fluorescence of BPZ relative to the control.

BCRP [2] = target: T1, BCRP; assay: bidirectional transport assay across hCMEC/D3 cell monolayer with or without Ko143; details: for transport by BCRP (conclusion of bidirectional transport assay): ER ≥ 1.5 and significantly reduced by Ko143
Experimental: For transport assays, hCMEC/D3 cells were seeded on collagen type I‐coated Transwell inserts (polycarbonate 12‐well, pore size […]) (cat. no. CLS3460; Corning, NY, USA) at 80% confluency and cultured as described in section 2.5. In brief, the drug was dissolved in Hanks’ balanced salt solution supplemented with 10 mM HEPES, 1 mM Na‐Pyruvate, pH 7.4 at 37°C (transport buffer). Initially, both sides of the chamber were washed with 1X PBS and the assay was performed with pre‐warmed transport buffer. 0.5 ml or 1.5 ml of the drug solution, with or without BCRP‐specific inhibitor Ko143 (1 μM) was added to either the apical side or basolateral side of the monolayer, respectively, and fresh transport buffer was added to the opposite side. Aliquots of 100 μl samples were taken from the opposite sides every 30 min for 2 h, and the same amount of fresh transport buffer was added to the same chamber after each sampling. […] Concentrations of ASMs were evaluated by HPLC or LC/MS. Apparent permeability (Papp) is defined as the transport rate of ASM and efflux ratio (ER) was calculated as the ratio of Papp in the basolateral‐to‐apical (Papp(B→A)) direction to the Papp in the apical‐to‐basolateral (Papp(A→B)) direction. The samples were stored at −20°C until analysis. […] Fluorescence detection of lucifer yellow (excitation at 430 nm, and emission at 535 nm) was carried out with Infinite 200 PRO NanoQuant (Tecan, Zurich, Switzerland). […] All transport assays were performed in triplicate.
The calculation for apparent permeability coefficient, Papp, was performed as described before. Papp=dQr/dt/A×C0 where dQr/dt is the cumulative amount in the receiver side vs time in μM/s
A is the area of the cell monolayer
C0 is the initial concentration of the dosing solution (μM).
And, Efflux ratio=Papp(B−to−A)/Papp(A−to−B)

[3] = set-up: method as in Johannessen, 2004; Patsalos, 2008; Lee, 2016; details: patients with epilepsy; ref Johannessen, 2004; Patsalos, 2008; Lee, 2016; cited from earlier work
BCRP [4] = target: T1, BCRP; set-up: host or cells: MCF-7 cells overexpressing BCRP; details: previous study; cited from earlier work
BCRP [5] = target: T1, BCRP; assay: vanadate-sensitive BCRP ATPase assay (membrane vesicles from MCF-7 cells overexpressing BCRP); format: biochemical; set-up: host or cells: MCF-7 cells overexpressing BCRP; details: 40 µM
Experimental: To assess the interaction between ASMs and BCRP, a vanadate‐sensitive ATPase assay was performed as per the manufacturer's instructions manual. […] After 10 min, 1x developer solution was added and kept for 2 min. To stop the reaction, 100 µL blocker solution was added and incubated for 30 min. at 37°C. The optical densities were measured at 620 nm using an Infinite 200 PRO NanoQuant (Tecan, Zurich, Switzerland) plate reader. 1 μM Ko143 was used as a positive control for BCRP inhibition. Ko143 was used at a concentration that is known to inhibit BCRP efficiently. The results were expressed as vanadate‐sensitive ATPase activity that is based on the difference in inorganic phosphate released between samples with and without vanadate. This will evaluate the ability of the test ASM to stimulate BCRP's baseline ATPase activity.

intracellular accumulation of BPZ in hCMEC/D3 cells (BCRP [1]): did not affect
transport by BCRP (conclusion of bidirectional transport assay) (BCRP [2]; hCMEC/D3 monolayer): not
Papp A→B at 2 h, 21 μM (BCRP [2]; human, pH 7.4): 3.37 ×10⁻⁶ cm/s
Papp A→B at 2 h, 42 μM (BCRP [2]; human, pH 7.4): 3.37 ×10⁻⁶ cm/s
Papp B→A at 2 h, 21 μM (BCRP [2]; human, pH 7.4): 4.27 ×10⁻⁶ cm/s
Papp B→A at 2 h, 42 μM (BCRP [2]; human, pH 7.4): 4.04 ×10⁻⁶ cm/s
efflux ratio at 2 h (BCRP [2]; human, pH 7.4, Efflux ratio (ER) without inhibitor, at all the tested concentrations, hCMEC/D3 monolayer): < 1.5
efflux ratio at 2 h, 21 μM (BCRP [2]; human, pH 7.4, Efflux ratio (ER), hCMEC/D3 without inhibitor Ko143, 21 μM, hCMEC/D3 monolayer): 1.23
efflux ratio at 2 h, 42 μM (BCRP [2]; human, pH 7.4, Efflux ratio (ER), hCMEC/D3 without inhibitor Ko143, 42 μM, hCMEC/D3 monolayer): 1.18
Papp A→B at 2 h, 21 μM (BCRP [2]; human, pH 7.4, with Ko143 1 μM): 4.72 ×10⁻⁶ cm/s
Papp A→B at 2 h, 42 μM (BCRP [2]; human, pH 7.4, with Ko143 1 μM): 3.82 ×10⁻⁶ cm/s
Papp B→A at 2 h, 21 μM (BCRP [2]; human, pH 7.4, with Ko143 1 μM): 3.03 ×10⁻⁶ cm/s
Papp B→A at 2 h, 42 μM (BCRP [2]; human, pH 7.4, with Ko143 1 μM): 4.27 ×10⁻⁶ cm/s
efflux ratio at 2 h, 21 μM (BCRP [2]; human, pH 7.4, with Ko143 1 μM, Efflux ratio (ER), hCMEC/D3 with inhibitor Ko143, 21 μM, hCMEC/D3 monolayer, 1 μM Ko143): 0.98
efflux ratio at 2 h, 42 μM (BCRP [2]; human, pH 7.4, with Ko143 1 μM, Efflux ratio (ER), hCMEC/D3 with inhibitor Ko143, 42 μM, hCMEC/D3 monolayer, 1 μM Ko143): 1.12
Structure (SMILES): NC(=O)N1c2ccccc2C=Cc2ccccc21 [CBZ, carbamazepine]
Therapeutic plasma concentration range [3]: 15 to 45 µM
stimulation of BCRP ATPase activity (BCRP [4]): no significant stimulation

Structure (SMILES): O=C1c2c(O)ccc(O)c2C(=O)c2c(NCCNCCO)ccc(NCCNCCO)c21 [MXR, mitoxantrone]
Papp A→B at 2 h, 5 μM (BCRP [2]; human, pH 7.4): 5.1 ×10⁻⁶ cm/s
Papp B→A at 2 h, 5 μM (BCRP [2]; human, pH 7.4): 12.7 ×10⁻⁶ cm/s
Papp A→B at 2 h, 5 μM (BCRP [2]; human, pH 7.4, with Ko143 1 μM): 10.2 ×10⁻⁶ cm/s
Papp B→A at 2 h, 5 μM (BCRP [2]; human, pH 7.4, with Ko143 1 μM): 10.6 ×10⁻⁶ cm/s

BPZ accumulation in hCMEC/D3 cells (BCRP [1]; […] and […] µM): significantly increased
transport by BCRP (conclusion of bidirectional transport assay) (BCRP [2]; hCMEC/D3 monolayer): transports
Papp A→B at 2 h, 25 µM (BCRP [2]; human, pH 7.4): 2.64 ×10⁻⁶ cm/s
Papp A→B at 2 h, […] µM (BCRP [2]; human, pH 7.4): 16.5 ×10⁻⁶ cm/s
Papp B→A at 2 h, 25 µM (BCRP [2]; human, pH 7.4): 4.72 ×10⁻⁶ cm/s
Papp B→A at 2 h, […] µM (BCRP [2]; human, pH 7.4): 39.4 ×10⁻⁶ cm/s
Papp A→B at 2 h, 25 µM (BCRP [2]; human, pH 7.4, with Ko143 1 μM): 3.21 ×10⁻⁶ cm/s
Papp A→B at 2 h, […] µM (BCRP [2]; human, pH 7.4, with Ko143 1 μM): 140 ×10⁻⁶ cm/s
Papp B→A at 2 h, 25 µM (BCRP [2]; human, pH 7.4, with Ko143 1 μM): 3.59 ×10⁻⁶ cm/s
Papp B→A at 2 h, […] µM (BCRP [2]; human, pH 7.4, with Ko143 1 μM): 169 ×10⁻⁶ cm/s
stimulation of BCRP ATPase activity (activation assay) (BCRP [5]): significantly stimulated
Structure (SMILES): NC(=O)N1c2ccccc2CC(=O)c2ccccc21 [OXC, oxcarbazepine]
